{
  "source": "paper PMC8829087",
  "about": "(The Journal of Biological Chemistry, 2021)",
  "key": {"GLP-1R G168^1.63S": {"system": "GLP-1R G168^1.63S", "conditions": "cited from earlier work", "text": "(§1) Previous in vivo characterizations of missense variants in the GLP-1R and GIPR have pointed to associations between receptor impairments and clinical phenotypes. One example is the more frequently occurring variant of GIPR E354^6.53Q (gnomAD MAF: 0.2). […] Heterozygous carriers of the rare missense variant T14 ..."}, "GLP-1R T149^1.44M": {"system": "GLP-1R T149^1.44M", "conditions": "cited from earlier work", "text": "as §1"}, "[1]": {"system": "GLP-1R variants P7^ECDL, R44^ECDH and L260^ICL2P", "conditions": "cited from earlier work", "text": "as §1"}, "[2]": {"system": "patients with type 2 diabetes, GLP-1R G168^1.63S carriers", "conditions": "cited from earlier work", "text": "as §1"}, "[3]": {"target": "human glucagon receptor missense variant R225^3.30H (human) (UniProt P47871)", "sequence (P47871 other isoform, or with tags, fused parts or gaps mutant)": "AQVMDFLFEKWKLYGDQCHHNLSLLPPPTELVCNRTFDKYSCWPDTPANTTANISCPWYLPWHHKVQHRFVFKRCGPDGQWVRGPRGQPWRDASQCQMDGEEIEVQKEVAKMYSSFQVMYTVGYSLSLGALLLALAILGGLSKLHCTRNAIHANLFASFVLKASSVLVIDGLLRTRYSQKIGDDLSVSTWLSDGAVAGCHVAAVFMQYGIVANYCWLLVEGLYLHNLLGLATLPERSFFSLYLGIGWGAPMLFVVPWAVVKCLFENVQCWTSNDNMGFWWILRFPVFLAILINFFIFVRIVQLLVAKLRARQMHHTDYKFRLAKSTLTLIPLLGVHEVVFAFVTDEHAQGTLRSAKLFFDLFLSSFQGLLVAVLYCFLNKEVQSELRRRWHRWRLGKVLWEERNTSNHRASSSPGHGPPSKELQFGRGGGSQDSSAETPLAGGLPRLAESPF"}},
  "data": [
    {"substance": "glucagon-like peptide-1 [GLP-1]", "values": [
      {"measurement": "receptor signaling and binding affinity of GLP-1", "setting": "GLP-1R G168^1.63S", "result": "preserved receptor signaling and binding affinity"},
      {"measurement": "binding capacity of GLP-1", "setting": "GLP-1R T149^1.44M", "result": "lower binding capacity"},
      {"measurement": "receptor signaling", "setting": "GLP-1R T149^1.44M", "result": "impaired receptor signaling capabilities"},
      {"measurement": "GLP-1 binding and receptor signaling", "setting": "[1]", "result": "wildtype-like GLP-1 binding and receptor signaling"}
    ]},
    {"substance": "liraglutide: treatment with liraglutide of patients with type 2 diabetes (HAEGTFTSDVSSYLEGQAAKEFIAWLVRGRG; chains of the INN, looked up)", "values": [
      {"measurement": "weight loss and fat mass", "setting": "[2]", "result": "improved weight loss and lower fat mass"}
    ]},
    {"substance": "β-arrestin-2 (Rluc8-Arr3-Sp2) (from UniProt P32121 1-409) (natural protein)", "values": [
      {"measurement": "potency (EC50) of glucagon in β-arrestin-2 recruitment, BRET in HEK293, fold decrease against wildtype", "setting": "[3]", "result": 6, "unit": "fold"}
    ]}
  ]
}
